{"source": "patent US20060292244A1", "about": "“Use of pvp-iodine liposomes for treatment of acne” (priority 2003, published 2006)", "tested_on": "Human ciliated epithelium cells", "assay": "in-vitro ciliary activity / ciliary vibration test", "assay_type": "cell-based", "protocol": "1 test substance at a temperature of 37° C."}
{"molecule": "N=C(NCCCCCCNC(=N)NC(=N)Nc1ccc(Cl)cc1)NC(=N)Nc1ccc(Cl)cc1", "note": "[chlorohexidine solution, chlorohexidine]", "values": [{"measurement": "ciliary activity / ciliary vibration", "value": "decrease"}]}
